Here are results for 18 compounds from patent publication US8450313B2, “2,3-diaryl- or heteroaryl-substituted 1,1,1-trifluoro-2-hydroxypropyl compounds” (Hoffmann-La Roche Inc., priority 2009, dated 2013).

In the assay the target is T1, full length human recombinant glucocorticoid receptor (Homo sapiens, UniProt P04150).
T1 construct: It contains some partially purified full length human recombinant glucocorticoid receptor; purchased Panvera/Invitrogen PV4302
T1 sequence (P04150 1-777): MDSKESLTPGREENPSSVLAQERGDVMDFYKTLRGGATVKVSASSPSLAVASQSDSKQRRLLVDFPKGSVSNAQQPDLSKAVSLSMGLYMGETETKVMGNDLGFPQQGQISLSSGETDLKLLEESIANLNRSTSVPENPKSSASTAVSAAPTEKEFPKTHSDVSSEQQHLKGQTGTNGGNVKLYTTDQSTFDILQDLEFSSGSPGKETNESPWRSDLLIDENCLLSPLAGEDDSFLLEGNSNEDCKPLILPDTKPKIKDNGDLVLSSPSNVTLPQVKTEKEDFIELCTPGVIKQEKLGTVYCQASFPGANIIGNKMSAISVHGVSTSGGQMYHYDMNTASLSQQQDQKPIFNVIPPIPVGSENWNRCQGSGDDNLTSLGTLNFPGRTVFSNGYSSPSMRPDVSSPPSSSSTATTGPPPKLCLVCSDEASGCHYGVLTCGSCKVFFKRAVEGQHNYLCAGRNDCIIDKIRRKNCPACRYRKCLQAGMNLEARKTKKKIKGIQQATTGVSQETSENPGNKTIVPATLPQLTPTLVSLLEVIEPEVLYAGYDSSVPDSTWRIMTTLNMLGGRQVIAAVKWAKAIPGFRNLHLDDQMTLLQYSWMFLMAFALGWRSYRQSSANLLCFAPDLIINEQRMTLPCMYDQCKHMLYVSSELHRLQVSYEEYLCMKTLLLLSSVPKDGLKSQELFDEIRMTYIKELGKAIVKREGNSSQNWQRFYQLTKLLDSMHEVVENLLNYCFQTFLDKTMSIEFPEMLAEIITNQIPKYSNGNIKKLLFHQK
As to the kind of experiment: Glucocorticoid Receptor Binding Assay (Glucocorticoid Receptor Competitor Assay far red kit, fluorescence polarization). Conditions: competition with fluorescent GR ligand Fluormone GS Far Red, 3 hours at 22° C., pH 7.4; Ki calculated from IC50 by Cheng-Prusoff. An outline of the steps:
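Fluorescence polarization competition with partially purified full-length human recombinant GR, stabilizing peptide and Fluormone GS Far Red tracer in screening buffer pH 7.4; 3 hours at 22° C in the dark, read at 610–660 nm. IC50 from sigmoidal fit; Ki by Cheng-Prusoff.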
A word on the Ki: it is the equilibrium dissociation constant of an inhibitor or competing ligand from its target. For the compound `CCN1C(=O)COc2ccc([C@](O)([C@H](C)c3ccc(-c4ccc(C(=O)O)c(Cl)c4)cc3Cl)C(F)(F)F)cc21` (racemic) [Example 64, 3,3′-Dichloro-4′-[2-(4-ethyl-3-oxo-3,4-dihydro-2H-benzo[1,4]oxazin-6-yl)-3,3,3-trifluoro-2-hydroxy-1-methyl-propyl]-biphenyl-4-carboxylic acid], the Ki was 97.9 nM. `CCOC(=O)C1CCN(c2ccc([C@H](C)[C@](O)(c3ccc4c(c3)N(C)C(=O)CO4)C(F)(F)F)c(Cl)c2)CC1` (stereo in doubt) [Example 42, 1-{3-Chloro-4-[3,3,3-trifluoro-2-hydroxy-1-methyl-2-(4-methyl-3-oxo-3,4-dihydro-2H-benzo[1,4]oxazin-6-yl)-propyl]-phenyl}-piperidine-4-carboxylic acid ethyl ester]: the Ki was 4 nM. The result for `C[C@@H](c1ccc(-c2ccc(C(=O)O)cc2)cc1Cl)[C@](O)(c1ccc2c(c1)N(C)C(=O)CO2)C(F)(F)F` (stereo in doubt) [Example 22, 3′-Chloro-4′-[3,3,3-trifluoro-2-hydroxy-1-methyl-2-(4-methyl-3-oxo-3,4-dihydro-2H-benzo[1,4]oxazin-6-yl)-propyl]-biphenyl-4-carboxylic acid] reads 2.9 nM. In the case of `C[C@H](c1ccc(-c2ccc(F)c(C(=O)O)c2)cc1Cl)[C@@](O)(c1ccc2oc(=O)n(C)c2c1)C(F)(F)F` (relative stereo) [Example 122, 3′-Chloro-4-fluoro-4′-[3,3,3-trifluoro-2-hydroxy-1-methyl-2-(3-methyl-2-oxo-2,3-dihydro-benzooxazol-5-yl)-propyl]-biphenyl-3-carboxylic acid], the Ki was 0.5 nM. As for `C[C@H](c1ccc(-c2ccc(OCC(=O)O)cc2)cc1Cl)[C@@](O)(c1ccc2oc(=O)n(C)c2c1)C(F)(F)F` (stereo in doubt) [Example 130, {3′-Chloro-4′-[3,3,3-trifluoro-2-hydroxy-1-methyl-2-(3-methyl-2-oxo-2,3-dihydro-benzooxazol-5-yl)-propyl]-biphenyl-4-yloxy}-acetic acid], the figure is 0.5 nM; as for `COC(=O)c1ccc(-c2ccc([C@H](C)[C@](O)(c3ccc4c(c3)N(C)C(=O)CO4)C(F)(F)F)c(Cl)c2)cc1F` (racemic) [Example 25, 3′-Chloro-3-fluoro-4′-[3,3,3-trifluoro-2-hydroxy-1-methyl-2-(4-methyl-3-oxo-3,4-dihydro-2H-benzo[1,4]oxazin-6-yl)-propyl]-biphenyl-4-carboxylic acid methyl ester], 2.8 nM; as for `C[C@H](c1ccc(Oc2cccc(C(=O)O)c2)cc1Cl)[C@@](O)(c1ccc2c(c1)N(C)C(=O)CO2)C(F)(F)F` (racemic) [Example 61, 3-{3-Chloro-4-[3,3,3-trifluoro-2-hydroxy-1-methyl-2-(4-methyl-3-oxo-3,4-dihydro-2H-benzo[1,4]oxazin-6-yl)-propyl]-phenoxy}-benzoic acid], 1 nM. The result for `COC(=O)c1ccc(Oc2ccc([C@@H](C)[C@@](O)(c3ccc4oc(=O)n(C)c4c3)C(F)(F)F)c(Cl)c2)nc1` (relative stereo) [Example 174, 6-{3-Chloro-4-[3,3,3-trifluoro-2-hydroxy-1-methyl-2-(3-methyl-2-oxo-2,3-dihydro-benzooxazol-5-yl)-propyl]-phenoxy}-nicotinic acid methyl ester] reads 2 nM; that for `COC(=O)c1ccc(Oc2ccc([C@H](C)[C@](O)(c3ccc4c(c3)N(C)C(=O)CO4)C(F)(F)F)c(Cl)c2)cc1Cl` (single isomer, unassigned) [Example 217], 1 nM.

For `C[C@H](c1ccc(OC(C)(C)C(=O)O)cc1Cl)[C@@](O)(c1ccc2oc(=O)n(C)c2c1)C(F)(F)F` (stereo in doubt) [Example 230, 2-{3-Chloro-4-[3,3,3-trifluoro-2-hydroxy-1-methyl-2-(3-methyl-2-oxo-2,3-dihydro-benzooxazol-5-yl)-propyl]-phenoxy}-2-methyl-propionic acid], the Ki was 35.3 nM.

For the compound `COC(=O)c1cnc(Oc2ccc([C@@H](C)[C@@](O)(c3ccc4c(c3)N(C)C(=O)CO4)C(F)(F)F)c(Cl)c2)nc1C(F)(F)F` (racemic) [Example 225, 2-{3-Chloro-4-[3,3,3-trifluoro-2-hydroxy-1-methyl-2-(4-methyl-3-oxo-3,4-dihydro-2H-benzo[1,4]oxazin-6-yl)-propyl]-phenoxy}-4-trifluoromethyl-pyrimidine-5-carboxylic acid methyl ester], the inhibitory constant (Ki) is 7.8 nM. The result for `COC(=O)c1ccc(-c2ccc([C@@H](C)[C@@](O)(c3ccc4oc(=O)n(C)c4c3)C(F)(F)F)c(Cl)c2)cc1Cl` (relative stereo) [Example 123, 3,3′-Dichloro-4′-[3,3,3-trifluoro-2-hydroxy-1-methyl-2-(3-methyl-2-oxo-2,3-dihydro-benzooxazol-5-yl)-propyl]-biphenyl-4-carboxylic acid methyl ester] reads 1.1 nM; that for `C[C@@H](c1ccc(-c2ccc(C(=O)O)c(Cl)c2)cc1Cl)[C@](O)(c1ccc2c(c1)N(C)C(=O)CO2)C(F)(F)F` (relative stereo) [Example 31, 3,3′-Dichloro-4′-[3,3,3-trifluoro-2-hydroxy-1-methyl-2-(4-methyl-3-oxo-3,4-dihydro-2H-benzo[1,4]oxazin-6-yl)-propyl]-biphenyl-4-carboxylic acid], 3.1 nM; that for `C[C@H](c1ccc(-c2ccc(C(=O)O)cn2)cc1Cl)[C@@](O)(c1ccc2oc(=O)n(C)c2c1)C(F)(F)F` (relative stereo) [Example 128, 6-{3-Chloro-4-[3,3,3-trifluoro-2-hydroxy-1-methyl-2-(3-methyl-2-oxo-2,3-dihydro-benzooxazol-5-yl)-propyl]-phenyl}-nicotinic acid], 1.7 nM.

Regarding `C[C@@H](c1ccc(Oc2ccc(C(=O)O)c(Cl)c2)cc1Cl)[C@](O)(c1ccc2c(c1)N(C)S(=O)(=O)N2C)C(F)(F)F` (relative stereo) [Example 161, 2-Chloro-4-{3-chloro-4-[2-(1,3-dimethyl-2,2-dioxo-2,3-dihydro-1H-2λ6-benzo[1,2,5]thiadiazol-5-yl)-3,3,3-trifluoro-2-hydroxy-1-methyl-propyl]-phenoxy}-benzoic acid], the Ki is 3.6 nM. As for `CCN1C(=O)COc2ccc([C@](O)([C@H](C)c3ccc(-c4ccc(Cl)c(C(=O)O)c4)cc3Cl)C(F)(F)F)cc21` (relative stereo) [Example 66, 4,3′-Dichloro-4′-[2-(4-ethyl-3-oxo-3,4-dihydro-2H-benzo[1,4]oxazin-6-yl)-3,3,3-trifluoro-2-hydroxy-1-methyl-propyl]-biphenyl-3-carboxylic acid], the figure is 191 nM. For `CC(c1ccc(Oc2ccc(C(=O)O)cc2F)cc1Cl)C(O)(c1ccc2c(c1)n(C)c(=O)n2C)C(F)(F)F` (stereo not drawn) [Example 86, 4-{3-Chloro-4-[2-(1,3-dimethyl-2-oxo-2,3-dihydro-1H-benzoimidazol-5-yl)-3,3,3-trifluoro-2-hydroxy-1-methyl-propyl]-phenoxy}-3-fluoro-benzoic acid], the Ki is 2.7 nM. The result for `COC(=O)c1ccc(Oc2ccc([C@H](C)[C@](O)(c3cc4c(cc3F)OCC(=O)N4C)C(F)(F)F)c(Cl)c2)cc1Cl` (relative stereo) [Example 138, 2-Chloro-4-{3-chloro-4-[3,3,3-trifluoro-2-(7-fluoro-4-methyl-3-oxo-3,4-dihydro-2H-benzo[1,4]oxazin-6-yl)-2-hydroxy-1-methyl-propyl]-phenoxy}-benzoic acid methyl ester] reads 0.6 nM.
